In this assay the test system is normal human keratinocytes. The experiment in a line: Keratinocyte differentiation: filaggrin immunolabeling normalized to nuclei. Format: cell-based. To be noted: positive reference 1 mMol/L, 72 hours. The method, then: To do this, normal human keratinocytes were cultured at 37° C. and 5% CO2. After a period of 4 days, they were treated with the products whose action it is desired to evaluate. After culturing for a further 72 hours at 37° C. and 5% CO2 with the test products, the cell lawns were rinsed, dried and then fixed with glacial methanol. Filaggrin, a keratinocyte differentiation marker, was detected and quantified by fluorescent immunolabeling with an anti-filaggrin primary antibody and a fluorescent secondary antibody to reveal the former. The nuclei were detected and quantified by marking with Hoechst, a fluorescent stain which binds to DNA and thus labels the nuclei. This last labeling was performed to normalize the results obtained previously on filaggrin. An increase in the filaggrin (area of labeling)/nuclei (area of labeling) ratio is evidence of an increase in the differentiation of the epidermal keratinocytes, and consequently of reinforcement of the barrier effect of the epidermis, which constitutes one of the factors of the reinforcement of the state of moisturization of the skin. An increase in keratinocyte differentiation makes it possible to reinforce the barrier effect of the human epidermis, and consequently to decrease the unesthetic effects that may be caused by the dehydration of human skin.

Marks after values point to notes of the source that are not given here.

The text below walks through data of US20230096761A1, “NOVEL COMPOSITION BASED ON POLYCAFFEOYLQUINIC ACIDS, COSMETIC USE THEREOF AND COSMETIC COMPOSITIONS COMPRISING SAME” (Societe D'Exploitation De Produits Pour Les Industries …, priority 2018, published 2023).

For the compound `[Ca+2].[Cl-].[Cl-]` [CaCl2], the “Filaggrin (area of labeling)/nuclei (area of labeling)” value came to 0.0245 ± 0.0045. For the setting “filaggrin/nuclei”, the “% stimulation vs control” value was 621* %.
